What was measured:
Test in all cases: KINOMEscan competition binding
Details in all cases: compound 10.0 µM
PRKCQ (human) = PRKCQ (human) (UniProt Q04759)
TNIK (human) = TNIK (human) (UniProt Q9UKE5)
[1] = tested on: KIT (human), P10721 [V559D/V654A]
DAPK3 (human) = DAPK3 (human) (UniProt O43293)
SGK110 (human) = SGK110 (human) (UniProt P0C264)
AAK1 (human) = AAK1 (human) (UniProt Q2M2I8)
TAOK1 (human) = TAOK1 (human) (UniProt Q7L7X3)
[2] = tested on: EIF2AK4 KD2 (human), Q9P2K8 [S808G]
CLK4 (human) = CLK4 (human) (UniProt Q9HAZ1)
STK16 (human) = STK16 (human) (UniProt O75716)
SIK2 (human) = SIK2 (human) (UniProt Q9H0K1)
CDK18 (human) = CDK18 (human) (UniProt Q07002)
RPS6KA1 KD1 (human) = RPS6KA1 KD1 (human) (UniProt Q15418)
Chain of RPS6KA1 KD1 (human) (Q15418 whole entry, looked up): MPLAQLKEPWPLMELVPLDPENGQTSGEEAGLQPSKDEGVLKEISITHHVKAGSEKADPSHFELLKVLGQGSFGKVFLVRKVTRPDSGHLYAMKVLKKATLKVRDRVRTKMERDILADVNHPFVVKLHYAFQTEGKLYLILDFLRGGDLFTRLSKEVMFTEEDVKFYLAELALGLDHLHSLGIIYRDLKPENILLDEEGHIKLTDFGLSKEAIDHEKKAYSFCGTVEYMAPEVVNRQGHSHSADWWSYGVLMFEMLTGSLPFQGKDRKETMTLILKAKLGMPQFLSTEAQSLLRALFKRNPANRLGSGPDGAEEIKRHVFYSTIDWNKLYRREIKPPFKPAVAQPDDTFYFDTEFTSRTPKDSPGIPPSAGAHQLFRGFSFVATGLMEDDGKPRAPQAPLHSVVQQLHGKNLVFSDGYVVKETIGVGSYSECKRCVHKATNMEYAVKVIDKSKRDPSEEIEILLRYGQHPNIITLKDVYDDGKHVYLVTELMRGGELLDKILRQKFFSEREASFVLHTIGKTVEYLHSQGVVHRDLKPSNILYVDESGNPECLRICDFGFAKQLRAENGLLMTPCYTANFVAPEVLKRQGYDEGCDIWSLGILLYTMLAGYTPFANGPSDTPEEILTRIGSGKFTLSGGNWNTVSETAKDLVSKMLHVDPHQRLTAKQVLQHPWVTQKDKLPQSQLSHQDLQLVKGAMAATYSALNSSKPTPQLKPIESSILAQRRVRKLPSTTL

EPHA7 (human) = EPHA7 (human) (UniProt Q15375)
MET (human) = MET (human) (UniProt P08581)
Chain of MET (human) (P08581 whole entry, looked up): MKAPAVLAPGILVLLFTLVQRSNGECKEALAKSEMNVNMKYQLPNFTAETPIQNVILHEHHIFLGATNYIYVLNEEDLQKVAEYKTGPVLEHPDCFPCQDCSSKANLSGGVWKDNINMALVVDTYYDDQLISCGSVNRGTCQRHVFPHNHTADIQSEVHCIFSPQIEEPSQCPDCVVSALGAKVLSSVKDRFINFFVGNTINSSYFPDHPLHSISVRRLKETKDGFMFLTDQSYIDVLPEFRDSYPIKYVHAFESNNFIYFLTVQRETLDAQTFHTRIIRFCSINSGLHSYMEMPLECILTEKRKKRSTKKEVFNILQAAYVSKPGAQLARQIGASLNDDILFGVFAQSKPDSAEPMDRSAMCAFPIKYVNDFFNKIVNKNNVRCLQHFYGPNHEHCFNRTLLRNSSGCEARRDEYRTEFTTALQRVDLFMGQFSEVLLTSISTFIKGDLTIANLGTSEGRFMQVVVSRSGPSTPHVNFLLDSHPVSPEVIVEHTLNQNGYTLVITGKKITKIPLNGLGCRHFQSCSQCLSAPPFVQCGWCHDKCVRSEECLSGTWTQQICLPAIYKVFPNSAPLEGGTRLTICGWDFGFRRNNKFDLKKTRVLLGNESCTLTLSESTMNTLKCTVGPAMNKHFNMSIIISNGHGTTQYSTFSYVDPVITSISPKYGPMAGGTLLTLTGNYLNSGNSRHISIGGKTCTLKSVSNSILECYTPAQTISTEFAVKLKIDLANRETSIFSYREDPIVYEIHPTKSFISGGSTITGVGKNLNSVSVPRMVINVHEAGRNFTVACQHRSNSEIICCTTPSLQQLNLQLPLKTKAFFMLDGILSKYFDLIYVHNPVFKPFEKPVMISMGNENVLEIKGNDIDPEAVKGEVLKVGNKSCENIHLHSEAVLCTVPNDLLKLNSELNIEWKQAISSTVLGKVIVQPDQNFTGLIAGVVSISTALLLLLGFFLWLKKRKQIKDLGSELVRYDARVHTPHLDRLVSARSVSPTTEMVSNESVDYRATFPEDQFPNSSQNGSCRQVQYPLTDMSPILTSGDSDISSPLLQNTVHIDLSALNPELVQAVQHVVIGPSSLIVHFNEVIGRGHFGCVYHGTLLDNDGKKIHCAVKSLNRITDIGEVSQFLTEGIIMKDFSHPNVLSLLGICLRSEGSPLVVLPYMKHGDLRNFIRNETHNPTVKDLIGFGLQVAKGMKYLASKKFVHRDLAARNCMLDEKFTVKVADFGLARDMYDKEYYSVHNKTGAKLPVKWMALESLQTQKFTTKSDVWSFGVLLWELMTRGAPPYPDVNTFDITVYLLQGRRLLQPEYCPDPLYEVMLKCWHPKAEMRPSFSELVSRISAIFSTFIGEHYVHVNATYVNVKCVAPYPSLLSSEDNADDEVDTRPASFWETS

AKT2 (human) = AKT2 (human) (UniProt P31751)
DYRK1B (human) = DYRK1B (human) (UniProt Q9Y463)
MAP3K5 (human) = MAP3K5 (human) (UniProt Q99683)
MAP2K4 (human) = MAP2K4 (human) (UniProt P45985)
NLK (human) = NLK (human) (UniProt Q9UBE8)
CSNK2A2 (human) = CSNK2A2 (human) (UniProt P19784)
CDK16 (human) = CDK16 (human) (UniProt Q00536)
[3] = tested on: EGFR (human), P00533 [G719C; 746-750 del]
PRKCH (human) = PRKCH (human) (UniProt P24723)
TEK (human) = TEK (human) (UniProt Q02763)
ULK3 (human) = ULK3 (human) (UniProt Q6PHR2)
Chain of ULK3 (human) (Q6PHR2 whole entry, looked up): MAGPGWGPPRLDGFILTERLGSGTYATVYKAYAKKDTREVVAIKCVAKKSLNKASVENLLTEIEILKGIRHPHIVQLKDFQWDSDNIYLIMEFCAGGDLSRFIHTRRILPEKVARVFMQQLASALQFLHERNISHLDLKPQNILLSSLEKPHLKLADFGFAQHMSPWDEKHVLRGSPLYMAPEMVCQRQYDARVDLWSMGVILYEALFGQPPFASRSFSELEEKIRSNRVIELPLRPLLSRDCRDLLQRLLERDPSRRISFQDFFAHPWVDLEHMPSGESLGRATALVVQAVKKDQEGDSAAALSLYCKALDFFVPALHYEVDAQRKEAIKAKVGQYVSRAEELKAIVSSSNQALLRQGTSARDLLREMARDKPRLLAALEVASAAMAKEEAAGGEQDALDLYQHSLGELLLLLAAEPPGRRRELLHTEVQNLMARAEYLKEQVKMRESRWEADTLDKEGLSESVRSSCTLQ

TEC (human) = TEC (human) (UniProt P42680)
[4] = tested on: EGFR (human), P00533 [747-751 del / S ins]
MELK (human) = MELK (human) (UniProt Q14680)
LATS2 (human) = LATS2 (human) (UniProt Q9NRM7)
CDK2 (human) = CDK2 (human) (UniProt P24941)
CAMK1D (human) = CAMK1D (human) (UniProt Q8IU85)
CLK1 (human) = CLK1 (human) (UniProt P49759)
LYN (human) = LYN (human) (UniProt P07948)
CDK14 (human) = CDK14 (human) (UniProt O94921)
TLK1 (human) = TLK1 (human) (UniProt Q9UKI8)
DCLK2 (human) = DCLK2 (human) (UniProt Q8N568)
ACVR2B (human) = ACVR2B (human) (UniProt Q13705)
DAPK2 (human) = DAPK2 (human) (UniProt Q9UIK4)
RAF1 (human) = RAF1 (human) (UniProt P04049)
[5] = tested on: PIK3CA (human), P42336 [E545K]
PIM3 (human) = PIM3 (human) (UniProt Q86V86)

Chain of EIF2AK4 KD2 (human), Q9P2K8 [S808G] (Q9P2K8 whole entry S808G, looked up): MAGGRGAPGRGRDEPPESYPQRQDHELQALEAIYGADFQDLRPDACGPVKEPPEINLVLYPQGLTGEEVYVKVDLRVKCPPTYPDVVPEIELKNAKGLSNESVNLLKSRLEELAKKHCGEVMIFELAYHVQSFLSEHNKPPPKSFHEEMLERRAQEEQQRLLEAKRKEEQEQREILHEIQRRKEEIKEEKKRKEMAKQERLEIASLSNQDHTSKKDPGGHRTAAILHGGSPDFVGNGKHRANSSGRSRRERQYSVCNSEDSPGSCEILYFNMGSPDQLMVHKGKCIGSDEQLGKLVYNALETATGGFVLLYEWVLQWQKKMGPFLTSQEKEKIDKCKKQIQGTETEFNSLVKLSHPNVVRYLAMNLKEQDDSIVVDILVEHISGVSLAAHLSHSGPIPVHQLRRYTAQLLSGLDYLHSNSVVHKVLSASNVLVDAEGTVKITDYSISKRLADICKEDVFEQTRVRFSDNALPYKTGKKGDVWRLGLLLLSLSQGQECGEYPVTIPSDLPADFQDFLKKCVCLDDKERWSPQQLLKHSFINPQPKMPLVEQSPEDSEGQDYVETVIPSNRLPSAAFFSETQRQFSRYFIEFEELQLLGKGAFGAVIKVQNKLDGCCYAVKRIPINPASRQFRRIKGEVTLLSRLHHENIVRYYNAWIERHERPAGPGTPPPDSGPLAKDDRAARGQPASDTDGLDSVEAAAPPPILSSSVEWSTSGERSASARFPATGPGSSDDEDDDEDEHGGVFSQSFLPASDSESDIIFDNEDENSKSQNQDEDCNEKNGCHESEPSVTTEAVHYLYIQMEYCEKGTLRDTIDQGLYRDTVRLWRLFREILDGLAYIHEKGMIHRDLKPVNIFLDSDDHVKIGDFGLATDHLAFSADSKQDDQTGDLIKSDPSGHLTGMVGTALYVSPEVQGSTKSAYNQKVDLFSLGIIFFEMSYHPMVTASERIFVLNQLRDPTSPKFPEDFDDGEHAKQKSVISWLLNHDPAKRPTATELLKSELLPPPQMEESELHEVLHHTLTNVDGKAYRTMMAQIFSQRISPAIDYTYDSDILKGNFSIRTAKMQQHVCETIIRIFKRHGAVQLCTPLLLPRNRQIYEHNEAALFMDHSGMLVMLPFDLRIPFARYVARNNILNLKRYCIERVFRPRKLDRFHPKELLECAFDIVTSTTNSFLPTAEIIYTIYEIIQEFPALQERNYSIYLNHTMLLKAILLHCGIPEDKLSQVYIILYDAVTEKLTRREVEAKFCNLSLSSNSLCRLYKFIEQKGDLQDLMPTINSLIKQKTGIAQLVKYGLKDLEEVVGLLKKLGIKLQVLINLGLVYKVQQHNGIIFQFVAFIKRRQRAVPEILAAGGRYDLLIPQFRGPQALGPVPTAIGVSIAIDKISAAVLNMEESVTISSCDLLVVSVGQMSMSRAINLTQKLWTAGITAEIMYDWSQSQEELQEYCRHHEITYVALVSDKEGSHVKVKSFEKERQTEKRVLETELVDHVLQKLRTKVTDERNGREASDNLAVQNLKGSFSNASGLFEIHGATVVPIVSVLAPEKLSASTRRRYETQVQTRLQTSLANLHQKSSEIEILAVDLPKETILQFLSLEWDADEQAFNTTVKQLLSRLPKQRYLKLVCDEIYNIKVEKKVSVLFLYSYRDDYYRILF
Chain of DAPK3 (human) (O43293 whole entry, looked up): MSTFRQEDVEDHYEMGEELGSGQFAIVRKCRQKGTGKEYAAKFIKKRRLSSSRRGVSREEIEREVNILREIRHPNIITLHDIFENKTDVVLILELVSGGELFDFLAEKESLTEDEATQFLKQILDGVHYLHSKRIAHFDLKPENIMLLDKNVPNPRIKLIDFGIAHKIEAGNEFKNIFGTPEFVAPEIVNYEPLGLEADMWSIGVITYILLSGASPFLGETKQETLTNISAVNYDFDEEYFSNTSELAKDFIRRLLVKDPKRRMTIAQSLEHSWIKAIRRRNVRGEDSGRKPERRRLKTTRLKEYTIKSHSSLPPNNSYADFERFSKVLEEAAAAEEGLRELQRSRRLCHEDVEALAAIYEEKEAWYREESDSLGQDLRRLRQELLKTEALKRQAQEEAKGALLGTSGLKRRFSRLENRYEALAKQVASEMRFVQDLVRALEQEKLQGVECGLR

With `COc1cc(N2CCN(C)CC2)ccc1Nc1ncc2c(n1)N(C)c1ccccc1N(C)C2=O` the kinase still bound, per cent of control (PRKCQ (human)) was 83%, the kinase still bound, per cent of control (TNIK (human)) was 90% and the kinase still bound, per cent of control [1] was 100%. The kinase still bound, per cent of control (DAPK3 (human)) was 98%, the kinase still bound, per cent of control (SGK110 (human)) was 52% and the kinase still bound, per cent of control (AAK1 (human)) was 88%. For the same compound, the kinase still bound, per cent of control (TAOK1 (human)) was 100%, the kinase still bound, per cent of control [2] was 100% and the kinase still bound, per cent of control (CLK4 (human)) was 99%. It also gave a kinase still bound, per cent of control (STK16 (human)) of 100%, a kinase still bound, per cent of control (SIK2 (human)) of 89% and a kinase still bound, per cent of control (CDK18 (human)) of 100%. It also gave a kinase still bound, per cent of control (RPS6KA1 KD1 (human)) of 97%, a kinase still bound, per cent of control (EPHA7 (human)) of 100% and a kinase still bound, per cent of control (MET (human)) of 90%. The kinase still bound, per cent of control (AKT2 (human)) was 100%, the kinase still bound, per cent of control (DYRK1B (human)) was 92% and the kinase still bound, per cent of control (MAP3K5 (human)) was 100%. The kinase still bound, per cent of control (MAP2K4 (human)) was 98%, the kinase still bound, per cent of control (NLK (human)) was 100% and the kinase still bound, per cent of control (CSNK2A2 (human)) was 88%. The kinase still bound, per cent of control (CDK16 (human)) was 93%, the kinase still bound, per cent of control [3] was 61% and the kinase still bound, per cent of control (PRKCH (human)) was 76%. The kinase still bound, per cent of control (TEK (human)) was 100%, the kinase still bound, per cent of control (ULK3 (human)) was 100% and the kinase still bound, per cent of control (TEC (human)) was 100%. It also gave a kinase still bound, per cent of control [4] of 92%, a kinase still bound, per cent of control (MELK (human)) of 80% and a kinase still bound, per cent of control (LATS2 (human)) of 75%. It also gave a kinase still bound, per cent of control (CDK2 (human)) of 75%, a kinase still bound, per cent of control (CAMK1D (human)) of 99% and a kinase still bound, per cent of control (CLK1 (human)) of 66%. For the same compound, the kinase still bound, per cent of control (LYN (human)) was 79%, the kinase still bound, per cent of control (CDK14 (human)) was 100% and the kinase still bound, per cent of control (TLK1 (human)) was 97%. The kinase still bound, per cent of control (DCLK2 (human)) was 68%, the kinase still bound, per cent of control (ACVR2B (human)) was 92% and the kinase still bound, per cent of control (DAPK2 (human)) was 84%. It also gave a kinase still bound, per cent of control (RAF1 (human)) of 94%, a kinase still bound, per cent of control [5] of 97% and a kinase still bound, per cent of control (PIM3 (human)) of 84%.
In the case of `COc1cc(N2CCC(O)CC2)ccc1Nc1ncc2c(n1)N1CCc3cccc(c31)C(=O)N2C`, the kinase still bound, per cent of control (PRKCQ (human)) is reported as 97%, the kinase still bound, per cent of control (TNIK (human)) is reported as 48% and the kinase still bound, per cent of control [1] is reported as 100%. For the same compound, the kinase still bound, per cent of control (DAPK3 (human)) was 37%, the kinase still bound, per cent of control (SGK110 (human)) was 100% and the kinase still bound, per cent of control (AAK1 (human)) was 35%. It also gave a kinase still bound, per cent of control (TAOK1 (human)) of 60%, a kinase still bound, per cent of control [2] of 100% and a kinase still bound, per cent of control (CLK4 (human)) of 70%. For the same compound, the kinase still bound, per cent of control (STK16 (human)) was 48%, the kinase still bound, per cent of control (SIK2 (human)) was 100% and the kinase still bound, per cent of control (CDK18 (human)) was 100%. It also gave a kinase still bound, per cent of control (RPS6KA1 KD1 (human)) of 94%, a kinase still bound, per cent of control (EPHA7 (human)) of 92% and a kinase still bound, per cent of control (MET (human)) of 90%. For the same compound, the kinase still bound, per cent of control (AKT2 (human)) was 100%, the kinase still bound, per cent of control (DYRK1B (human)) was 54% and the kinase still bound, per cent of control (MAP3K5 (human)) was 100%. The kinase still bound, per cent of control (MAP2K4 (human)) was 82%, the kinase still bound, per cent of control (NLK (human)) was 73% and the kinase still bound, per cent of control (CSNK2A2 (human)) was 67%. For the same compound, the kinase still bound, per cent of control (CDK16 (human)) was 94%, the kinase still bound, per cent of control [3] was 78% and the kinase still bound, per cent of control (PRKCH (human)) was 100%. The kinase still bound, per cent of control (TEK (human)) was 98%, the kinase still bound, per cent of control (ULK3 (human)) was 100% and the kinase still bound, per cent of control (TEC (human)) was 100%. It also gave a kinase still bound, per cent of control [4] of 64%, a kinase still bound, per cent of control (MELK (human)) of 78% and a kinase still bound, per cent of control (LATS2 (human)) of 100%. The kinase still bound, per cent of control (CDK2 (human)) was 87%, the kinase still bound, per cent of control (CAMK1D (human)) was 87% and the kinase still bound, per cent of control (CLK1 (human)) was 73%. It also gave a kinase still bound, per cent of control (LYN (human)) of 92%, a kinase still bound, per cent of control (CDK14 (human)) of 91% and a kinase still bound, per cent of control (TLK1 (human)) of 91%. For the same compound, the kinase still bound, per cent of control (DCLK2 (human)) was 0.4%, the kinase still bound, per cent of control (ACVR2B (human)) was 100% and the kinase still bound, per cent of control (DAPK2 (human)) was 36%. The kinase still bound, per cent of control (RAF1 (human)) was 98%, the kinase still bound, per cent of control [5] was 88% and the kinase still bound, per cent of control (PIM3 (human)) was 92%.
